Measurements published in patent publication US8044073B2, “Aminobenzimidazoles and benzimidazoles as inhibitors of respiratory syncytial virus replication” (Tibotec Pharmaceuticals, priority 2003, dated 2011).

test system: Respiratory Syncytial Virus; assay: In vitro screening for activity against RSV (tetrazolium-based colorimetric assay, protection against viral cytopathology); format: cell-based; conditions: Table 1; RSV in HeLa cells, MTT, seven days after infection; pEC50 = -log of EC50 in molar units
From the text: The percent protection against cytopathology caused by viruses (antiviral activity or EC50) achieved by tested compounds and their cytotoxicity (CC50) are both calculated from dose-response curves. The selectivity of the antiviral effect is represented by the selectivity index (SI), calculated by dividing the CC50 (cytotoxic dose for 50% of the cells) by the EC50 (antiviral activity for 50% of the cells). The tables in the above experimental part list the category to which each of the prepared compounds belong: Compounds belonging to activity category “A” have a pEC50 (−log of EC50 when expressed in molar units) equal to or more than 7. Compounds belonging to activity category “B” have a pEC50 value between 6 and 7.
Automated tetrazolium-based colorimetric assays were used for determination of EC50 and CC50 of test compounds. Flat-bottom, 96-well plastic microtiter trays were filled with 180 μl of Eagle's Basal Medium, supplemented with 5% FCS (0% for FLU) and 20 mM Hepes buffer. Subsequently, stock solutions (7.8× final test concentration) of compounds were added in 45 μl volumes to a series of triplicate wells so as to allow simultaneous evaluation of their effects on virus- and mock-infected cells. Five five-fold dilutions were made directly in the microtiter trays using a robot system. Untreated virus controls, and HeLa cell controls were included in each test. Approximately 100 TCID50 of Respiratory Syncytial Virus was added to two of the three rows in a volume of 50 μl. The same volume of medium was added to the third row to measure the cytotoxicity of the compounds at the same concentrations as those used to measure the antiviral activity. After two hours of incubation, a suspension (4×10^5 cells/ml) of HeLa cells was added to all wells in a volume of 50 μl. The cultures were incubated at 37° C. in a 5% CO2 atmosphere. Seven days after infection the cytotoxicity and the antiviral activity was examined spectrophotometrically. To each well of the microtiter tray, 25 μl of a solution of MTT (3-(4,5-dimethylthiazol-2-yl)-2,5-diphenyltetrazolium bromide) was added. The trays were further incubated at 37° C. for 2 hours, after which the medium was removed from each cup. Solubilization of the formazan crystals was achieved by adding 100 μl 2-propanol. Complete dissolution of the formazan crystals were obtained after the trays have been placed on a plate shaker for 10 min. Finally, the absorbances were read in an eight-channel computer-controlled photometer (Multiskan MCC, Flow Laboratories) at two wavelengths (540 and 690 nm). The absorbance measured at 690 nm was automatically subtracted from the absorbance at 540 nm, so as to eliminate the effects of non-specific absorption.
The percent protection against cytopathology caused by viruses (antiviral activity or EC50) achieved by tested compounds and their cytotoxicity (CC50) were both calculated from dose-response curves. The selectivity of the antiviral effect is represented by the selectivity index (SI), calculated by dividing the CC50 (cytotoxic dose for 50% of the cells) by the EC50 (antiviral activity for 50% of the cells).

`Cc1cccc(NCc2ccc3nc(N)n(Cc4nc(C)ccc4O)c3c2)c1` [Compound 1, 2-[2-Amino-6-(mtolylamino-methyl)-benzoimidazol-1-ylmethyl]-6-methyl-pyridin-3-ol] and `Cc1ccc(O)c(Cn2c(N)nc3ccc(CNc4cccc(Br)c4)cc32)n1` [Compound 3] are the same in Activity: 8.6 for the first, 8.6 for the second.

First: Cc1ccc(O)c(Cn2c(N)nc3ccc(CNc4cc(Cl)cc(Cl)c4)cc32)n1 [Compound 2]
Second: Cc1ccc(O)c(Cn2c(N)nc3ccc(CNc4cc(Cl)c(O)c(Cl)c4)cc32)n1 [Compound 72]
The Activity of the first is higher: 8.6 for the first, 7.1 for the second.

First: Cc1ccc(O)c(Cn2c(N)nc3ccc(CNc4cccc(Cl)c4)cc32)n1 [Compound 5]
Second: Cc1ccc(O)c(Cn2c(N)nc3ccc(CNc4cccc(F)c4)cc32)n1 [Compound 22]
The Activity of the first is higher: 8.5 for the first, 7.9 for the second.

First: C#Cc1cccc(NCc2ccc3nc(N)n(Cc4nc(C)ccc4O)c3c2)c1 [Compound 6]
Second: CSc1cccc(NCc2ccc3nc(N)n(Cc4nc(C)ccc4O)c3c2)c1 [Compound 15]
The Activity of the first is higher: 8.5 for the first, 8.3 for the second.

Going from `CC(=O)O.COc1ccccc1NCc1ccc2nc(N)n(Cc3nc(C)ccc3O)c2c1` [Compound 7] to `CC(=O)O.CCc1ccccc1NCc1ccc2nc(N)n(Cc3nc(C)ccc3O)c2c1` [Compound 12], the Activity falls from 8.5 to 8.4.

Going from `Cc1cc(C)cc(NCc2ccc3nc(N)n(Cc4nc(C)ccc4O)c3c2)c1` [Compound 9] to `Cc1ccc(O)c(Cn2c(N)nc3ccc(CNc4ccc(C)c(C)c4)cc32)n1` [Compound 23], the Activity falls from 8.4 to 7.9.

Compared with `Cc1ccc(O)c(Cn2c(N)nc3ccc(CNc4ccc(S(N)(=O)=O)cc4)cc32)n1` [Compound 10], `Cc1ccc(O)c(Cn2c(N)nc3ccc(CNc4ccc(Br)cc4)cc32)n1` [Compound 54] is lower in Activity: 8.4 for the first, 7.5 for the second.

Compared with `Cc1ccc(O)c(Cn2c(N)nc3ccc(CNc4ccccc4CO)cc32)n1` [Compound 11], `Cc1ccc(O)c(Cn2c(N)nc3ccc(CNc4ccccc4Br)cc32)n1` [Compound 20] is lower in Activity: 8.4 for the first, 8.0 for the second.

Going from `Cc1ccc(O)c(Cn2c(N)nc3ccc(CNc4ccc(C#N)cc4)cc32)n1` [Compound 13] to `Cc1ccc(NCc2ccc3nc(N)n(Cc4nc(C)ccc4O)c3c2)cc1` [Compound 67], the Activity falls from 8.4 to 7.3.

Going from `CCOC(=O)c1ccc(NCc2ccc3nc(N)n(Cc4nc(C)ccc4O)c3c2)c(O)c1` [Compound 14] to `CCOC(=O)c1cccc(NCc2ccc3nc(N)n(Cc4nc(C)ccc4O)c3c2)c1` [Compound 59], the Activity falls from 8.3 to 7.3.

First: CCc1cccc(CC)c1NCc1ccc2nc(N)n(Cc3nc(C)ccc3O)c2c1 [Compound 17]
Second: CCc1cc(Br)ccc1NCc1ccc2nc(N)n(Cc3nc(C)ccc3O)c2c1 [Compound 52]
The Activity of the first is higher: 8.1 for the first, 7.5 for the second.

First: CCc1cccc(NCc2ccc3nc(N)n(Cc4nc(C)ccc4O)c3c2)c1 [Compound 18]
Second: Cc1ccc(O)c(Cn2c(N)nc3ccc(CNc4cccc(CO)c4)cc32)n1 [Compound 26]
The Activity of the first is higher: 8.0 for the first, 7.9 for the second.

Compared with `Cc1ccc(O)c(Cn2c(N)nc3ccc(CNc4cccc(C)c4C)cc32)n1` [Compound 19], `Cc1ccc(O)c(Cn2c(N)nc3ccc(CNc4cccc(Cl)c4C)cc32)n1` [Compound 29] is lower in Activity: 8.0 for the first, 7.8 for the second.

Compared with `Cc1ccc(O)c(Cn2c(N)nc3ccc(CNc4ccccc4)cc32)n1` [Compound 21], `Cc1ccc(O)c(Cn2c(N)nc3ccc(CNc4ccccc4F)cc32)n1` [Compound 40] is lower in Activity: 7.9 for the first, 7.7 for the second.

Compared with `CCOc1cccc(NCc2ccc3nc(N)n(Cc4nc(C)ccc4O)c3c2)c1` [Compound 24], `Cc1ccc(O)c(Cn2c(N)nc3ccc(CNc4cccc(C(=N)N)c4)cc32)n1` [Compound 41] is lower in Activity: 7.9 for the first, 7.7 for the second.

First: Cc1ccc(O)c(Cn2c(N)nc3ccc(CNc4ccccc4C#N)cc32)n1 [Compound 25]
Second: Cc1ccc(O)c(Cn2c(N)nc3ccc(CNc4ccccc4C(C)C)cc32)n1 [Compound 32]
The Activity of the first is higher: 7.9 for the first, 7.8 for the second.

Compared with `Cc1ccc(O)c(Cn2c(N)nc3ccc(CNc4cccc(NS(C)(=O)=O)c4)cc32)n1` [Compound 27], `CC(=O)Nc1cccc(NCc2ccc3nc(N)n(Cc4nc(C)ccc4O)c3c2)c1` [Compound 35] is lower in Activity: 7.9 for the first, 7.7 for the second.

Going from `COc1ccc(NCc2ccc3nc(N)n(Cc4nc(C)ccc4O)c3c2)cc1F` [Compound 28] to `COc1ccc(NCc2ccc3nc(N)n(Cc4nc(C)ccc4O)c3c2)cc1O` [Compound 75], the Activity falls from 7.8 to 7.

First: Cc1ccc(O)c(Cn2c(N)nc3ccc(CNc4cccc(SC(F)(F)F)c4)cc32)n1 [Compound 30]
Second: Cc1ccc(O)c(Cn2c(N)nc3ccc(CNc4ccc(Br)c(C(F)(F)F)c4)cc32)n1 [Compound 62]
The Activity of the first is higher: 7.8 for the first, 7.3 for the second.

First: Cc1ccc(O)c(Cn2c(N)nc3ccc(CNc4cccc(S(=O)(=O)CCO)c4)cc32)n1 [Compound 33]
Second: CCCCNS(=O)(=O)c1cccc(NCc2ccc3nc(N)n(Cc4nc(C)ccc4O)c3c2)c1 [Compound 47]
The Activity of the first is higher: 7.8 for the first, 7.6 for the second.

Going from `COc1cc(NCc2ccc3nc(N)n(Cc4nc(C)ccc4O)c3c2)cc(OC)c1` [Compound 34] to `COc1cc(NCc2ccc3nc(N)n(Cc4nc(C)ccc4O)c3c2)cc(C(F)(F)F)c1` [Compound 57], the Activity falls from 7.7 to 7.4.

First: Cc1ccc(O)c(Cn2c(N)nc3ccc(CNc4ccc5c(c4)CCC5)cc32)n1 [Compound 36]
Second: Cc1ccc(O)c(Cn2c(N)nc3ccc(CNc4ccc(F)c(F)c4)cc32)n1 [Compound 55]
The Activity of the first is higher: 7.7 for the first, 7.4 for the second.

First: Cc1ccc(O)c(Cn2c(N)nc3ccc(CNc4cc(Br)cc(C(F)(F)F)c4)cc32)n1 [Compound 37]
Second: Cc1ccc(O)c(Cn2c(N)nc3ccc(CNc4cc(F)cc(C(F)(F)F)c4)cc32)n1 [Compound 45]
The Activity of the first is higher: 7.7 for the first, 7.6 for the second.

Compared with `Cc1ccc(O)c(Cn2c(N)nc3ccc(CNc4ccccc4C(N)=O)cc32)n1` [Compound 39], `CC(=O)c1ccccc1NCc1ccc2nc(N)n(Cc3nc(C)ccc3O)c2c1` [Compound 69] is lower in Activity: 7.7 for the first, 7.2 for the second.

`CC(=O)c1cccc(NCc2ccc3nc(N)n(Cc4nc(C)ccc4O)c3c2)c1` [Compound 42] and `Cc1ccc(O)c(Cn2c(N)nc3ccc(CNc4cccc(CC(=O)O)c4)cc32)n1` [Compound 46] are the same in Activity: 7.6 for the first, 7.6 for the second.

First: Cc1ccc(O)c(Cn2c(N)nc3ccc(CNc4ccc5c(c4)OCCO5)cc32)n1 [Compound 43]
Second: Cc1ccc(O)c(Cn2c(N)nc3ccc(CNc4ccc(Br)c(C)c4)cc32)n1 [Compound 56]
The Activity of the first is higher: 7.6 for the first, 7.4 for the second.

`Cc1ccc(O)c(Cn2c(N)nc3ccc(CNc4cccc5cccnc45)cc32)n1` [Compound 44] and `Cc1ccc(O)c(Cn2c(N)nc3ccc(CNc4ccccc4C(F)(F)F)cc32)n1` [Compound 48] are the same in Activity: 7.6 for the first, 7.6 for the second.

First: Cc1ccc(O)c(Cn2c(N)nc3ccc(CNc4cc(F)cc(F)c4)cc32)n1 [Compound 49]
Second: Cc1ccc(O)c(Cn2c(N)nc3ccc(CNc4ccc(C)c(F)c4)cc32)n1 [Compound 60]
The Activity of the first is higher: 7.5 for the first, 7.3 for the second.

First: CC(=O)Nc1ccc(NCc2ccc3nc(N)n(Cc4nc(C)ccc4O)c3c2)cc1 [Compound 53]
Second: Cc1ccc(O)c(Cn2c(N)nc3ccc(CNc4ccc(Br)c(F)c4)cc32)n1 [Compound 63]
The Activity of the first is higher: 7.5 for the first, 7.3 for the second.

First: CC(=O)O.Cc1ccc(O)c(Cn2c(N)nc3ccc(CNc4ccccc4-c4ccccc4)cc32)n1 [Compound 58]
Second: Cc1ccc(O)c(Cn2c(N)nc3ccc(CNc4cccc(Oc5ccccc5)c4)cc32)n1 [Compound 71]
The Activity of the first is higher: 7.4 for the first, 7.1 for the second.

`COc1ccc(NCc2ccc3nc(N)n(Cc4nc(C)ccc4O)c3c2)cc1OC` [Compound 61] and `COC(=O)c1cc(NCc2ccc3nc(N)n(Cc4nc(C)ccc4O)c3c2)cc(C(=O)OC)c1` [Compound 64] are the same in Activity: 7.3 for the first, 7.3 for the second.

`CCOC(=O)c1ccccc1NCc1ccc2nc(N)n(Cc3nc(C)ccc3O)c2c1` [Compound 68] and `Cc1ccc(O)c(Cn2c(N)nc3ccc(CNc4ccccc4C(C)(C)C)cc32)n1` [Compound 70] are the same in Activity: 7.2 for the first, 7.2 for the second.

For `Cc1ccc(O)c(Cn2c(N)nc3ccc(CNc4cc(C(F)(F)F)cc(C(F)(F)F)c4)cc32)n1` [Compound 74], the Activity was 7.1.
